Where “and” joins values, the source holds several entries; their conditions need not be identical. Equal entries are not always repeated. Toxic doses and inconclusive results are not listed. How the source made its calls: active means survival T/C of 150% or more; inactive means T/C below 125% in these data. Peptide text beside a SMILES is read from it. * marks the point of attachment. Boc = CC(C)(C)OC(=O)*; NHNH2 = NN*
System: P388 leukemia ip, CD2F1 mice, survival T/C
Test: NCI In Vivo Anticancer Drug Screen. Data for tumor model P388 Leukemia (intraperitoneal) in CD2F1 (CDF1) mice
Conditions: endpoint: median survival time, higher = longer survival
In short: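 Mice carrying the transplanted tumor received test compound or vehicle. Survival was recorded in each group, and the value is the treated-group measurement divided by that of the vehicle-treated control group.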

[1] = dose: 50.0 mg/kg/injection, schedule: Q01DX005 (ip), vehicle: Klucel (hydroxypropylcellulose) (HPC)
[2] = dose: 100.0 mg/kg/injection, schedule: Q01DX005 (ip), vehicle: Klucel (hydroxypropylcellulose) (HPC)
[3] = dose: 50.0 mg/kg/injection, schedule: Q01DX009 (ip), vehicle: saline with Tween-80
[4] = dose: 100.0 mg/kg/injection, schedule: Q01DX009 (ip), vehicle: saline with Tween-80
[5] = dose: 200.0 mg/kg/injection, schedule: Q01DX009 (ip), vehicle: saline with Tween-80
[6] = dose: 200.0 mg/kg/injection, schedule: Q01DX005 (ip), vehicle: Klucel (hydroxypropylcellulose) (HPC)

Measured: T/C

COc1cccc2c1C(=O)c1c(O)c3c(c(O)c1C2=O)C[C@@](O)(C(C)=O)[C@@H](OC)[C@@H]3OC1CC(N)C(O)C(C)O1 (stereo partly drawn)
inactive: dose: 0.6 mg/kg/injection, schedule: Q04DX003 (ip), vehicle: water 103 % of control | dose: 1.2 mg/kg/injection, schedule: Q04DX003 (ip), vehicle: water 122 % of control | dose: 2.4 mg/kg/injection, schedule: Q04DX003 (ip), vehicle: water 108 % of control | dose: 2.5 mg/kg/injection, schedule: Q04DX003 (ip), vehicle: water 108 % of control | dose: 4.8 mg/kg/injection, schedule: Q04DX003 (ip), vehicle: water 123 % of control | dose: 5.0 mg/kg/injection, schedule: Q04DX003 (ip), vehicle: water 108 % of control

COc1cc(NCCCNCC(C)(C)C)c2ncccc2c1
inactive: dose: 1.25 mg/kg/injection, schedule: Q01DX009 (ip), vehicle: Klucel (hydroxypropylcellulose) (HPC) 100 % of control | dose: 2.5 mg/kg/injection, schedule: Q01DX009 (ip), vehicle: Klucel (hydroxypropylcellulose) (HPC) 95 % of control | dose: 5.0 mg/kg/injection, schedule: Q01DX009 (ip), vehicle: Klucel (hydroxypropylcellulose) (HPC) 94 % of control | dose: 10.0 mg/kg/injection, schedule: Q01DX009 (ip), vehicle: Klucel (hydroxypropylcellulose) (HPC) 99 % of control

C=CC(=O)N(C)c1nc(N(C)C)nc(N(C)C)n1
inactive: [1] 102 % of control | [2] 108 % of control

Nc1[nH]n(-c2ccccc2)c(=O)c1C1c2ccccc2Sc2ccccc21
inactive: dose: 60.0 mg/kg/injection, schedule: Q01DX005 (ip), vehicle: saline with Tween-80 99 % of control | dose: 120.0 mg/kg/injection, schedule: Q01DX005 (ip), vehicle: saline with Tween-80 99 % of control | dose: 240.0 mg/kg/injection, schedule: Q01DX005 (ip), vehicle: saline with Tween-80 95 % of control

C=C(C)C(=O)OC1CC2OC2(C)CC(OC(=O)C(=C)C)C2C(=C)C(=O)OC2/C=C\1C (stereo not drawn)
inactive: dose: 5.0 mg/kg/injection, schedule: Q01DX009 (ip), vehicle: saline with Tween-80 90 % of control | dose: 10.0 mg/kg/injection, schedule: Q01DX009 (ip), vehicle: saline with Tween-80 90 % of control | dose: 20.0 mg/kg/injection, schedule: Q01DX009 (ip), vehicle: saline with Tween-80 100 % of control | dose: 40.0 mg/kg/injection, schedule: Q01DX009 (ip), vehicle: saline with Tween-80 86 % of control

NNC(=O)CC(N)=O
inactive: dose: 12.5 mg/kg/injection, schedule: Q04DX003 (ip), vehicle: saline 95 % of control | dose: 25.0 mg/kg/injection, schedule: Q04DX003 (ip), vehicle: saline 95 % of control | dose: 50.0 mg/kg/injection, schedule: Q04DX003 (ip), vehicle: saline 96 % of control | dose: 200.0 mg/kg/injection, schedule: Q04DX003 (ip), vehicle: saline 104 % of control | dose: 400.0 mg/kg/injection, schedule: Q04DX003 (ip), vehicle: saline 100 % of control

CS(=O)(=O)Nc1nc2ccccc2c(=O)o1
inactive: dose: 60.0 mg/kg/injection, schedule: Q01DX005 (ip), vehicle: Klucel (hydroxypropylcellulose) (HPC) 107 % of control | dose: 120.0 mg/kg/injection, schedule: Q01DX005 (ip), vehicle: Klucel (hydroxypropylcellulose) (HPC) 102 % of control | dose: 240.0 mg/kg/injection, schedule: Q01DX005 (ip), vehicle: Klucel (hydroxypropylcellulose) (HPC) 99 % of control

CN=C(C)NO
inactive: dose: 50.0 mg/kg/injection, schedule: Q01DX005 (ip), vehicle: saline 106 % of control | dose: 100.0 mg/kg/injection, schedule: Q01DX005 (ip), vehicle: saline 104 % of control | dose: 200.0 mg/kg/injection, schedule: Q01DX005 (ip), vehicle: saline 99 % of control

Cn1c(=O)[nH]c2nncnc2c1=O
inactive: dose: 2.0 mg/kg/injection, schedule: Q01DX009 (ip), vehicle: water 101 % of control | dose: 4.0 mg/kg/injection, schedule: Q01DX009 (ip), vehicle: water 100 % of control | dose: 8.0 mg/kg/injection, schedule: Q01DX009 (ip), vehicle: water 104 % of control | dose: 12.5 mg/kg/injection, schedule: Q01DX009 (ip), vehicle: water 99 % of control | dose: 16.0 mg/kg/injection, schedule: Q01DX009 (ip), vehicle: water 101 % of control | dose: 25.0 mg/kg/injection, schedule: Q01DX009 (ip), vehicle: water 117 % of control | dose: 32.0 mg/kg/injection, schedule: Q01DX009 (ip), vehicle: water 104 % of control | dose: 64.0 mg/kg/injection, schedule: Q01DX009 (ip), vehicle: water 123 % of control | dose: 375.0 micrograms/kg/injection, schedule: Q01DX009 (ip), vehicle: saline 97 % of control | dose: 750.0 micrograms/kg/injection, schedule: Q01DX009 (ip), vehicle: saline 100 % of control | dose: 1500.0 micrograms/kg/injection, schedule: Q01DX009 (ip), vehicle: saline 91 % of control | dose: 3000.0 micrograms/kg/injection, schedule: Q01DX009 (ip), vehicle: saline 100 % of control

CCOc1ccccc1/C=N\NC(=O)C(=O)N/N=C\c1ccccc1OCC
inactive: dose: 1.56 mg/kg/injection, schedule: Q01DX009 (ip), vehicle: Klucel (hydroxypropylcellulose) (HPC) 98 % of control | dose: 3.12 mg/kg/injection, schedule: Q01DX009 (ip), vehicle: Klucel (hydroxypropylcellulose) (HPC) 94 % of control | dose: 6.25 mg/kg/injection, schedule: Q01DX009 (ip), vehicle: Klucel (hydroxypropylcellulose) (HPC) 86 % of control and 91 % of control | dose: 50.0 mg/kg/injection, schedule: Q01DX009 (ip), vehicle: Klucel (hydroxypropylcellulose) (HPC) 90 % of control | dose: 200.0 mg/kg/injection, schedule: Q01DX009 (ip), vehicle: Klucel (hydroxypropylcellulose) (HPC) 97 % of control

CCCCC(CCCC)=NNC(=S)SC
inactive: [3] 100 % of control | [4] 100 % of control

CC(=O)Nc1ccc(-c2cn3ccccc3n2)cc1
inactive: [3] 100 % of control | [4] 92 % of control | [5] 106 % of control

CCC(C(=O)N(C)C)n1nc(Br)c(Br)c1C (stereo not drawn)
inactive: dose: 100.0 mg/kg/injection, schedule: Q04DX003 (ip), vehicle: Klucel (hydroxypropylcellulose) (HPC) 97 % of control | dose: 200.0 mg/kg/injection, schedule: Q04DX003 (ip), vehicle: Klucel (hydroxypropylcellulose) (HPC) 95 % of control

CC(=O)N(C(C)=O)N(C(C)=O)c1cc2ccccc2cn1
inactive: dose: 50.0 mg/kg/injection, schedule: Q01DX005 (ip), vehicle: saline with Tween-80 88 % of control | dose: 100.0 mg/kg/injection, schedule: Q01DX005 (ip), vehicle: saline with Tween-80 91 % of control

CC(C)(C)OC(=O)NC(Cc1ccccc1)C(=O)NC(CO)C(=O)NN (stereo not drawn) (Boc-Phe-Ser-NHNH2; configuration not given here)
inactive: [1] 97 % of control | [2] 95 % of control | [6] 105 % of control

O=C(/C(=C\c1ccccc1)c1ccccc1)c1ccccc1
inactive: [3] 92 % of control | [4] 88 % of control | [5] 93 % of control | dose: 400.0 mg/kg/injection, schedule: Q01DX009 (ip), vehicle: saline with Tween-80 95 % of control

CC(C)(C)C1=CC2(c3ccccn3)C(Cl)C(=O)N2NC(c2ccccn2)=N1 (stereo not drawn)
inactive: dose: 25.0 mg/kg/injection, schedule: Q01DX009 (ip), vehicle: other 98 % of control | dose: 50.0 mg/kg/injection, schedule: Q01DX009 (ip), vehicle: other 101 % of control | dose: 100.0 mg/kg/injection, schedule: Q01DX009 (ip), vehicle: other 98 % of control | dose: 200.0 mg/kg/injection, schedule: Q01DX009 (ip), vehicle: other 93 % of control

c1ccc(N(c2ccccc2)c2nnnn2-c2ccccc2)cc1
inactive: dose: 25.0 mg/kg/injection, schedule: Q01DX009 (ip), vehicle: saline with Tween-80 98 % of control | [3] 94 % of control | [4] 89 % of control

COC(=O)Nc1c2c(nc3ccccc13)-c1ccccc1C(C)(C)C2
inactive: [1] 103 % of control | [2] 101 % of control | [6] 98 % of control

From PubChem BioAssay AID330 (DTP/NCI, 2004)
